Values joined by “and” are separate entries in the source; they are usually repeats but may differ in a detail not shown here. Equal values may be shown once. “Also recorded” adds a separate entry of the source. Read-outs that look alike come from different tables or passages of the source.
Tests used:
HIV-1 BZ 167 [1] = type: cell-based
[2] = system: CBD1 peptide and CBD1- and CBM-based peptides; set-up: species or system BALB/c mice; conditions: mouse, in vivo; for ELISA titer against C17K / IgG2/IgG1 ratio / ELISA against the Immunogen (OD) / ELISA C17K / ELISA K23M / ELISA K24W / ELISA K27M / ELISA K27W / ELISA K27W(G) / ELISA K30W(G) / ELISA p6362: sc; on ELISA C17K: test concentration or dose not given here; on ELISA K24W: test concentration or dose not given here; on ELISA K27W(G): test concentration or dose not given here; on ELISA K27W: test concentration or dose not given here; on ELISA K30W(G): test concentration or dose not given here; on ELISA against the Immunogen (OD): test concentration or dose not given here; on ELISA p6362: test concentration or dose not given here
HIV-1 BZ 167 [3] = type: cell-based; conditions: for Inhibition of HIV-infection: 50-fold dilution of guinea pig immune sera (bleeds S5), HIV-1 BZ 167, p24 at 5 days post infection
[4] = target: CBD1, C13K, CBD1/A and C10M peptides and the CBD1-KLH Construct (Human immunodeficiency virus type 1 group M subtype B, UniProt P04578); conditions: guinea pig, in vivo
[5] = target: CBD1, C13K, CBD1/A and C10M peptides and the CBD1-KLH Construct (Human immunodeficiency virus type 1 group M subtype B, UniProt P04578, E630Q/H625N/T626M); conditions: guinea pig, in vivo
[6] = system: CBD1, C13K, CBD1/A and C10M peptides and the CBD1-KLH Construct; conditions: guinea pig, in vivo
[7] = system: IgG antibodies in human HIV-1 positive sera; type: binding; conditions: sera at 1000-fold dilution

Substance	% inhibition of HIV-1 at 200-fold dilution (HIV-1 BZ 167 [1])	Neutralizing activity ID50 (HIV-1 BZ 167 [1])	ELISA titer against C17K [2]	% Inhibition of HIV-1 infection at 200-fold dilution (HIV-1 BZ 167 [1])	Neutralizing activity ID50 Fold-Dilution (HIV-1 BZ 167 [1])	ELISA against the Immunogen (OD) [2] [OD]	ELISA C17K [2]	ELISA K23M [2]	ELISA K24W [2]	ELISA K27M [2]	ELISA K27W [2]	ELISA K27W(G) [2]	ELISA K30W(G) [2]	ELISA p6362 [2]	also measured
AQYIKANSKFIGITELKKCSLEQIWNNMTWMQWDK (AQYIKANSKFIGITELKKCSLEQIWNNMTWMQWDK) [A35K]	42%	150-fold	0.61 ± 0.35	–	–	–	–	–	–	–	–	–	–	–	difference in the degree of neutralization of HIV-1 infection versus anti-CBD1 immune sera (HIV-1 BZ 167 [1]): less than 2 fold; production of anti-CBD1 peptide antibodies, fold lower compared to the CBD1 peptide alone [2]: at least 3 fold; IgG2/IgG1 ratio [2]: 1.56
AQYIKANSKFIGITELKKIWNNMTWMQWDK (AQYIKANSKFIGITELKKIWNNMTWMQWDK) [A30K]	45%	150-fold	0.83 ± 0.44	–	–	–	–	–	–	–	–	–	–	–	IgG2/IgG1 ratio [2]: 3.24
C-I-W-N-N-M-T-W-M-Q-W-D-K (CIWNNMTWMQWDK) [C13K]	None	None	0.03 ± 0.02	–	–	–	–	–	–	–	–	–	–	–	Inhibition of HIV-infection (HIV-1 BZ 167 [3]): No Effect; ELISA C10M (titer) [4]: <200; ELISA CBD1 (titer) [5]: <200; ELISA C13K (titer) [6]: 400 and 200; ELISA CBD1/A (titer) [6]: <200; ELISA KLH (titer against the CBD1-KLH construct) [6]: <200
C-S-L-E-Q-I-A-N-N-M-T-A-M-Q-A-D-K (CSLEQIANNMTAMQADK) [CBD1/A]	–	–	–	–	–	–	–	–	–	–	–	–	–	–	Inhibition of HIV-infection (HIV-1 BZ 167 [3]): no apparent neutralizing activity; also recorded: No Effect; Inhibition of HIV infection (HIV-1 BZ 167 [3]; 100 fold dilution of guinea pig immune serum (bleeds S5), HIV-1 BZ 162, human CD4+ T lymphocytes): did not inhibit; ELISA C10M (titer) [4]: 16,000; ELISA CBD1 (titer) [5]: 20,000 and 16,000; ELISA C13K (titer) [6]: 2,000 and 1,000; ELISA CBD1/A (titer) [6]: 128,000; ELISA KLH (titer against the CBD1-KLH construct) [6]: <200
C-S-L-E-Q-I-W-N-N-M (CSLEQIWNNM) [C10M]	–	–	–	No Effect	No Effect	<0.10	–	–	–	–	–	–	–	–	–
CKSLEQIWNNMTWMQWDK [C18K]	65%	250-fold	1.75 ± 0.60	–	–	–	–	–	–	–	–	–	–	–	–
KQIINMWQVVGKAMYAKKCKSLEQIWNNMTWMQWDK (KQIINMWQVVGKAMYAKKCKSLEQIWNNMTWMQWDK)	45%	150-fold	1.07 ± 0.33	–	–	–	–	–	–	–	–	–	–	–	–
KRWIILGLNKIVRMYGPGPGIWNNMTW [K27W(G)]	–	–	–	16%	100-fold	0.73	<0.20	<0.20	<0.20	<0.20	<0.20	0.66 ± 0.22	<0.20	<0.20	–
KRWIILGLNKIVRMYGPGPGIWNNMTWMQW [K30W(G)]	–	–	–	81%	450-fold	1.45	<0.20	<0.20	<0.20	<0.20	<0.20	<0.20	1.23 ± 0.55	<0.20	–
KRWIILGLNKIVRMYKKCKSLEQIWNNMTWMQWDK	51%	200-fold	1.72 ± 0.46	–	–	–	–	–	–	–	–	–	–	–	–
KRWIILGLNKIVRMYKKCSLEQIWNNM [K27M]	–	–	–	65%	250-fold	1.38	–	–	–	–	–	–	–	–	–
KRWIILGLNKIVRMYKKIWDNMTWMEW [K27W-2]	–	–	–	<10%	100-fold	2.01	<0.20	<0.02	<0.02	<0.20	0.22 ± 0.08	2.01 ± 0.73	<0.20	<0.20	–
KRWIILGLNKIVRMYKKIWNNM [K23M]	–	–	–	11%	100-fold	0.66	<0.20	0.53	<0.20	<0.20	<0.20	<0.20	<0.20	<0.20	immunized mice that developed peptide specific antibodies [2]: 1 out of the five and ^aOnly 1 out of five mice immunized with the K23M peptide developed anti-K23M specific antibodies.
KRWIILGLNKIVRMYKKIWNNMTW [K24W]	–	–	–	88%	450-fold	1.55	<0.20	0.45 ± 0.40	1.41 ± 0.55	0.87 ± 0.15	0.21 ± 0.15	1.88 ± 0.66	<0.20	<0.20	–
KRWIILGLNKIVRMYKKIWNNMTWMQW [K27W]	–	–	–	65%	300-fold	1.64	0.24 ± 0.12	<0.20	<0.20	<0.20	1.49 ± 0.75	<0.20	2.25 ± 0.20	<0.20	–
KRWIILGLNKIVRMYKKIWNNMTWMQWDK [K29K]	62%	250-fold	1.80 ± 0.62	–	–	–	–	–	–	–	–	–	–	–	IgG2/IgG1 ratio [2]: 4.95
KLH-CSLEQIWNNMTWMQWDK [KLH-C17K]	–	–	–	–	–	–	–	–	–	–	–	–	–	–	Inhibition of HIV-infection (HIV-1 BZ 167 [3]): No Effect; ELISA C10M (titer) [4]: <200; ELISA CBD1 (titer) [5]: <200; ELISA C13K (titer) [6]: <200; ELISA CBD1/A (titer) [6]: <200; ELISA KLH (titer against the CBD1-KLH construct) [6]: <200
RGDAQYIKANSKFIGITELKKIWNNMTWMQWDK (RGDAQYIKANSKFIGITELKKIWNNMTWMQWDK) [R33K]	64%	200-fold	1.66 ± 0.37	–	–	–	–	–	–	–	–	–	–	–	IgG2/IgG1 ratio [2]: 4.05
SLEQIWNNMTWMQWDK [CBD1 peptide 618-633]	–	–	–	–	–	–	–	–	–	–	–	–	–	–	HIV-1 positive sera reacting in ELISA / sera tested ([7]; Brazil, n = 22): 1/22; mean OD 450 nm ± S.D. of reacting sera ([7]; Brazil, n = 22): 0.75 OD; HIV-1 positive sera reacting in ELISA / sera tested ([7]; Chili, n = 24): 1/24; mean OD 450 nm ± S.D. of reacting sera ([7]; Chili, n = 24): 0.30 OD; HIV-1 positive sera reacting in ELISA / sera tested ([7]; France, n = 81): 4/81; mean OD 450 nm ± S.D. of reacting sera ([7]; France, n = 81): 0.33 ± 0.05 OD

Source: patent US8790898B2 (priority 2008, dated 2014)
